Experimental data from ChEMBL document CHEMBL1201862, “PubChem BioAssay data set” (2004).
The source made the active and inactive calls.

Key:
[1] = A cytotoxicity screen of small molecule inhibitors of the PhoP region in Salmonella typhi identified in the primary screen. [Related pubchem assays: 1850, 1864, 1985 ]; assay type: functional
[2] = target: T1, Protein Tat (Human immunodeficiency virus type 1 group M subtype B (isolate HXB2)(HIV-1), UniProt P04608); assay type: functional;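 also: tat binding to TAR RNA read out by fluorescence polarization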
T1 sequence (P04608 whole entry): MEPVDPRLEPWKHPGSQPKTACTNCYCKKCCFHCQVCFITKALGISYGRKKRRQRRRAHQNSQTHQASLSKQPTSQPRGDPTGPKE

[3] = HIV-1 Vif–A3G interaction blockers – biochemical, TR-FRET, GST-Vif 1-94, biotin-A3G peptide, dose response retest, primary screen (AID 1117319); assay type: functional;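 also: TR-FRET signal of purified GST-Vif binding a biotinylated A3G peptide; inhibitors lower the FRET signal by blocking Vif and A3G binding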
[4] = viability of uninfected HEp-2 cells – cell-based, HTS, cytotoxicity control for RSV inhibitor project, dose response (AID 2410); assay type: functional; conditions: human respiratory syncytial virus
[5] = cells
[6] = Trypanosoma cruzi growth suppression in host cells – NIH3T3 host cells, beta-gal luminescence, confirmation (AID 2044); assay type: functional, cell-based;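 also: intracellular parasites grown in NIH/3T3 mouse fibroblasts as host cells; luminescent beta-galactosidase reporter signal from transgenic T. cruzi replicating inside host cells; inhibitors lower the luminescence signal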
[7] = NIH3T3 cell viability loss – ATP luminescence, mouse fibroblasts, counter-screen, dose response (AID 2010); assay type: functional, cell-based;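 also: cells exposed to compound for about 90 hours before reading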
[8] = target: T2, RNA-editing ligase 1, mitochondrial (Trypanosoma brucei brucei, UniProt P86926); assay: inhibition of trypanosome RNA editing ligase – biochemical, fluorescence, Trypanosoma brucei, dose response (AID 1117295); assay type: functional
T2 sequence (P86926 whole entry): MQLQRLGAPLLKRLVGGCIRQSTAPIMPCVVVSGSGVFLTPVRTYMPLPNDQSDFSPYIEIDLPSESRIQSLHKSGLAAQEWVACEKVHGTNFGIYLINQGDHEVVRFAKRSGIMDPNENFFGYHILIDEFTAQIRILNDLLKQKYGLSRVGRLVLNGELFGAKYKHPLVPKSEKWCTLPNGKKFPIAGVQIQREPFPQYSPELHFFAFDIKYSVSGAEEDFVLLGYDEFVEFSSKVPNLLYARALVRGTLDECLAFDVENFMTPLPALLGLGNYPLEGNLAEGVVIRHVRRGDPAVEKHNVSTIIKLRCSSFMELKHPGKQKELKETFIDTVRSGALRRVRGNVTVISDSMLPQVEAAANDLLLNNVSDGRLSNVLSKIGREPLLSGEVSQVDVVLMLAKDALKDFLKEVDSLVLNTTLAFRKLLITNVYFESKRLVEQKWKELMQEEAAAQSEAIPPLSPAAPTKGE

[9] = luciferase reporter signal suppression in cells – H4 neuroglioma cells, luminescence, dose response (AID 1990); assay type: functional, cell-based
[10] = Luminescence Cell-Based Dose Response HTS to Identify Inhibitors of 5'UTR Stem-Loop Driven Prion Protein mRNA Translation in H4 Neuroglioblastoma Cells. [Related pubchem assays: 1827 (Project Summary), 1813 (Primary HTS)]; assay type: functional
[11] = test system: Vero; assay: mammalian cell viability reduction – secondary assay, cytotoxicity control for West Nile virus antiviral project, dose response (AID 1650); assay type: functional; conditions: Chlorocebus sabaeus
[12] = alpha-synuclein stem-loop luciferase translation blockers – H4 neuroglioma cells, luminescence, confirmation (AID 1988); assay type: functional, cell-based
[13] = Luminescence Cell-Based Dose Retest to Confirm Inhibitors of Cancer Stem Cells. [Related pubchem assays (depositor defined):AID2717, AID2721]; assay type: functional; conditions: Homo sapiens
[14] = target: T3, Galanin receptor type 3 (Homo sapiens, UniProt O60755); assay: Fluorescence-based cell-based primary high throughput dose response assay to identify antagonists of the Galanin Receptor 3 (GalR3).; assay type: functional
T3 sequence (O60755 whole entry): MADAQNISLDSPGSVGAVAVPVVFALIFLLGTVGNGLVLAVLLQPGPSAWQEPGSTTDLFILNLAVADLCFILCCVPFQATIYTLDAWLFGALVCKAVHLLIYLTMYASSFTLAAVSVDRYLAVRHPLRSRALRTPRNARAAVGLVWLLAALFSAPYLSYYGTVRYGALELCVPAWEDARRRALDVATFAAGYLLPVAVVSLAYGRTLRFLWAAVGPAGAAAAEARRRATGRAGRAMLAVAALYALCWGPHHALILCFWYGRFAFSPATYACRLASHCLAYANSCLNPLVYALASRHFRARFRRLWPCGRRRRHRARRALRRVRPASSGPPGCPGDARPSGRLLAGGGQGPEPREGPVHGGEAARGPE

[15] = cells; assay type: functional, cell-based; conditions: HEK-CNG
[16] = target: T4, RNA-binding protein pos-1 (Caenorhabditis elegans, UniProt G5EF15); assay: disruptors of C. elegans POS-1 RNA interaction – biochemical, fluorescence polarization, dose response (AID 1964);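 also: purified POS-1 fused to maltose binding protein made in E. coli; potency of compounds blocking POS-1 binding to fluorescent RNA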
T4 sequence (G5EF15 whole entry): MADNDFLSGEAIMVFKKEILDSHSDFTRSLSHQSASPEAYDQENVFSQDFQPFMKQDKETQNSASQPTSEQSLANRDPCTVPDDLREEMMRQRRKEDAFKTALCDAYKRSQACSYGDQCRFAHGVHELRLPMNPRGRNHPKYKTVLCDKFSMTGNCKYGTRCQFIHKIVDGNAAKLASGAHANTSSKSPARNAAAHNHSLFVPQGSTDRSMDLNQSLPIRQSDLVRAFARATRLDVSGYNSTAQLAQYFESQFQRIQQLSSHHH

[17] = target: T5, Zinc finger protein mex-5 (Caenorhabditis elegans, UniProt Q9XUB2); assay: potency of MEX-5 RNA-binding blockers – biochemical, C. elegans, fluorescence polarization, dose response (AID 1960)
T5 sequence (Q9XUB2 whole entry): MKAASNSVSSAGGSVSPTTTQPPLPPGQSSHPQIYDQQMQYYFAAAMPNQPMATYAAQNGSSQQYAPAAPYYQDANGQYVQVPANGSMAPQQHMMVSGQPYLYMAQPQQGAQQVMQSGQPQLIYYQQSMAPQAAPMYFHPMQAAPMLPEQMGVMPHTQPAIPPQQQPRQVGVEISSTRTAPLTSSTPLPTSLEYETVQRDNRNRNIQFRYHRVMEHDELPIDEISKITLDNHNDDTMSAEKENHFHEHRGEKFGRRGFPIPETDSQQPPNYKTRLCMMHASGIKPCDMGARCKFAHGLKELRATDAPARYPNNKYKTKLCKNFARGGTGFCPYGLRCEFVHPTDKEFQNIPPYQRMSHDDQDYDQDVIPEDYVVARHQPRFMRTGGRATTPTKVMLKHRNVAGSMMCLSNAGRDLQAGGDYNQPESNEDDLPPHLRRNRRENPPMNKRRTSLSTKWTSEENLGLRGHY

[18] = target: Induced myeloid leukemia cell differentiation protein Mcl-1 (Homo sapiens, UniProt Q07820); assay type: functional
[19] = target: T6, Cytochrome P450 2C9 (Homo sapiens, UniProt P11712); conditions: Potency
[20] = target: Cytochrome P450 2D6 (Homo sapiens, UniProt P10635);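 also: CYP2D6 member of a cytochrome P450 panel assay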
[21] = target: T6, Cytochrome P450 2C9

T6 sequence (P11712 whole entry): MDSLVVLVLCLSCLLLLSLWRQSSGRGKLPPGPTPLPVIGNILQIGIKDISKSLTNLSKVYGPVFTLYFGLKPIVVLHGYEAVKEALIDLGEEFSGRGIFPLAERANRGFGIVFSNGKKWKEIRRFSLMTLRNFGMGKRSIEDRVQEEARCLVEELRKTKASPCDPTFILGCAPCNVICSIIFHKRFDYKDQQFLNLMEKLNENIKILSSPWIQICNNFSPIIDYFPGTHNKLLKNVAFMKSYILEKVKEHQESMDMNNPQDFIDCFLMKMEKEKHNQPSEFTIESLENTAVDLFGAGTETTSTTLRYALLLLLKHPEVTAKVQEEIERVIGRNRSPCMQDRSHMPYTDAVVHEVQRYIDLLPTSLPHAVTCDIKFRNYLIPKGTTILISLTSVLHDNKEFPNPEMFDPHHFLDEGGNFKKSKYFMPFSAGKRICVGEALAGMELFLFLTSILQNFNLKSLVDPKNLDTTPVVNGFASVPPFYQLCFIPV
Sequence of Cytochrome P450 2D6 (P10635 whole entry): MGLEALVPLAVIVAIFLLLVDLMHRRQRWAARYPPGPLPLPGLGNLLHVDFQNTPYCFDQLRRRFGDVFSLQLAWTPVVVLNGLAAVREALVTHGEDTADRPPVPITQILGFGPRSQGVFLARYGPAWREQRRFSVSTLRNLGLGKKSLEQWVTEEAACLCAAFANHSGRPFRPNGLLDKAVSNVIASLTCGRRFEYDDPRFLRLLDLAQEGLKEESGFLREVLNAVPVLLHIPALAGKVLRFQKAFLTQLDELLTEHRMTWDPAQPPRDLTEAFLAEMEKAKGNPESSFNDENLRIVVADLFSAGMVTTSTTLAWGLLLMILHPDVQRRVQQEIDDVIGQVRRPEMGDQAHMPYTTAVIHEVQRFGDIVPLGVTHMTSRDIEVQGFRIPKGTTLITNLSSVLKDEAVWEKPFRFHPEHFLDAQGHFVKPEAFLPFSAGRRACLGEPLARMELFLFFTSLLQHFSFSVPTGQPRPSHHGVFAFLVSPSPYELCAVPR
Sequence of Induced myeloid leukemia cell differentiation protein Mcl-1 (Q07820 whole entry): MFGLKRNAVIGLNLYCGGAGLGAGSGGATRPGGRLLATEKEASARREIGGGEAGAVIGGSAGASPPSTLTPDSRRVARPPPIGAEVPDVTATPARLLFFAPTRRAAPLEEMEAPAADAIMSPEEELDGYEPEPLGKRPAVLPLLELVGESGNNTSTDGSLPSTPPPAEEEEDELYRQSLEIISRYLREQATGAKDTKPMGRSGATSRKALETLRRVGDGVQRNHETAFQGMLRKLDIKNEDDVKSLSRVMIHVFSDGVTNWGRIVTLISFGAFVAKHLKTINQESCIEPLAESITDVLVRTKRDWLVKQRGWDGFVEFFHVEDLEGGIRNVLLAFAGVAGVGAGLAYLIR

In the case of Cc1ccc(N2C(=O)[C@@H]3[C@H](C2=O)[C@H]2C=CC=NN2[C@@H]3C(=O)Nc2ccc(Cl)cc2)cc1, the EC50 [1] is reported as > 50 µM (active), the IC50 [2] is reported as > 100 µM (active) and the IC50 [3] is reported as > 100 µM (active).

With NC(=O)[C@H]1CC2(CC(c3cccc(NC(=O)COc4ccc(Cl)cc4)c3)=NO2)CN1C(=O)c1ccccc1C(=O)c1ccccc1 (some centres not stated) the CC50 [4] was 12.3 µM (active) and the IC50 [5] was 24.9 µM (active).

For CCNc1nc(N)nc(Oc2ccc(OCCOc3ccc(Cl)cc3Cl)nn2)n1, the EC50 [1] was > 50 µM (active), the EC50 [6] was 0.668 µM (active) and the EC50 [7] was 6.72 µM (active).

In the case of CC(NCC(O)COc1ccc2ccccc2c1)c1ccccc1 (configuration not stated), the CC50 [4] is reported as 24.1 µM (active), the IC50 [8] is reported as > 96.6 µM (inactive) and the IC50 [5] is reported as > 25 µM (active).

For C[C@]12CC[C@H]3C(CCC4(O)CC(O)CC[C@]34C=O)C1=CC[C@H]2c1ccc(=O)oc1 (some centres not stated), the EC50 [9] was 6.93 µM (active), the EC50 [10] was 5.93 µM (active) and the CC50 [11] was 20.5 µM (active). The EC50 [12] was 1.62 µM (active), the AC50 [13] was 3.49 µM (active) and the IC50 [14] was > 29.9 µM (inactive). For the same compound, the EC50 [15] was > 29.9 µM (inactive).

With Cc1cc(C)c2c(c1)C1C=CCC1C(c1ccc(S(=O)(=O)N3CCOCC3)cc1)N2 (configuration not stated) the CC50 [4] was 15.6 µM (active), the EC50 [16] was > 300 µM (not active) and the EC50 [17] was > 300 µM (not active). For the same compound, the IC50 [18] was 2.74 µM (active) and the IC50 [5] was 11.7 µM (active).

With CC(C)C(c1nnnn1Cc1ccccc1)N(CCCO)Cc1cc2cc3c(cc2nc1O)OCO3 (configuration not stated) the EC50 [1] was > 50 µM (active).

In the case of C[C@@H](/C=C\c1cccc(Oc2ccc(F)cc2)c1)N(O)C(N)=O, the AC50 [19] is reported as 25.1 µM (inconclusive), the AC50 [20] is reported as 10 µM (inconclusive) and the AC50 [21] is reported as 31.6 µM (inconclusive).
